From US20030228308A1, “Isolated peptides which bind to HLA-Cw6 molecules and uses thereof” (priority 2002, published 2003)

What was measured:
autologous EBV-B cells = assay: 51Cr release lysis of peptide-incubated autologous EBV-B cells by CTL clone; assay type: cell-based, human; details: effector:target 10:1, chromium release after 4 hours; for lysis (chromium release): 1 μg/ml of peptide, 15 minutes
Description: A set of 16 amino acid long, MAGE-1 derived peptides were prepared, using standard solid phase methodologies.
The peptides, which overlapped by 12 residues and covered the entire MAGE-1 amino acid sequence, were incubated with autologous EBV-B cells that had been labelled with Na(^51Cr)O4. The cells were incubated for 15 minutes in the presence of 1 μg/ml of peptide, and then tested for lysis with the T cells, at effector:target ratios of 10:1. Chromium release was measured after 4 hours.
It corresponds to amino acids 230-238 of MAGE-1. The shorter peptide was tested, in the same manner as the longer ones.

EBV-B cells = assay: TNF production by CTL co-cultured with fixed EBV-B cells pulsed with the shorter peptide; assay type: cell-based, human; details: PFA-fixed EBV-B cells pulsed with peptide; overnight co-culture with 5,000 CTLs; WEHI 164 clone 13 readout
Description: A MAGE-1 expressing tumor cell line, MZ2-MEL.43 was obtained from a patient who tested positive for HLA-Cw6 expression. These cells either were, or were not contacted with gamma interferon (100 U/ml), 48 hours before lysis studies. EBV-B cells were also used. These cells naturally produce TNF. They were fixed with PFA (1% in PBS) for 10 minutes at room temperature, washed twice with Hank's medium, and either pulsed or not with the shorter peptide.
Stimulator cells (2×10^4) were distributed in flat bottom microwells, and cocultured with 5,000 CTLs, in a total volume of 150 μl of complete IMDM, supplemented with 25 U/ml of IL-2.
TNF production was measured, following overnight co-culture, by testing for toxicity of supernatant on TNF sensitive, WEHI 164 clone 13 cells.

## DGREHSAYGEPRKLLT (H. sapiens) [SEQ ID NO:1, amino acids 225-240 of MAGE-1]
Autologous EBV-B cells
  lysis (chromium release): positive

## HSAYGEPRKLLTQDLV (H. sapiens) [SEQ ID NO:2, amino acids 229-244 of MAGE-1]
Autologous EBV-B cells
  lysis (chromium release): positive

## SAYGEPRKL
Autologous EBV-B cells; read-out: peptide concentration giving half maximal lysis
  EC50: ~6 nM
EBV-B cells
  TNF production by CTL: did stimulate TNF production
